Laboratory results: patent US20120093951A1 (priority 2009, published 2012)
Like-named read-outs stand apart in the source and are kept apart here.

How the values were obtained:
[1] = tested on: H1N1 subtype serum swine influenza virus; type: in vivo, yellow chickens; details: 10 mg/day injected once per day for 7 days
[2] = tested on: H1N1 serum subtype of swine influenza virus (SIV); type: in vivo, yellow chickens; details: 10 mg/day once per day for 11 days
[3] = tested on: swine influenza virus A/California/4/2009 and A/Hong Kong/xx/2008; type: cell-based, MDCK cells (Madin-Darby Canine Kidney Cells)

Compound | Death Rate ([1]; 30 infected chickens) [%^] | Effective Rate ([1]; 30 infected chickens) [%] | Number of Death ([1]; of 30 infected chickens) | Death Rate ([2]; 40 infected chickens) [%^] | Effective Rate ([2]; 40 infected chickens) [%] | Number of Death ([2]; of 40 infected chickens) | Number of Detectable viruses/Total Number ([3]; Day 2, Tamiflu 10 μmol/ml) | Number of Detectable viruses/Total Number ([3]; Day 2, Tamiflu 100 μmol/ml) | Number of Detectable viruses/Total Number ([3]; Day 3, Tamiflu 10 μmol/ml) | Number of Detectable viruses/Total Number ([3]; Day 3, Tamiflu 100 μmol/ml)
CC(N)C12CC3CC(CC(C3)C1)C2 (stereo not shown) [Group C, rimantadine] | 63.3 | 36.6 | 19 | 62.5 | 37.5 | 25 |  |  |  | 
CCOC(=O)C1=C[C@@H](OC(CC)CC)[C@H](NC(C)=O)[C@@H](N)C1 [Tamiflu, Oseltamivir phosphate] |  |  |  |  |  |  | 1/2 | 0/2 | 2/2 | 2/2
